From patent US12007399B2, “Method of identifying and treating premature infants at risk for BPD” (Mallinckrodt Pharmaceuticals Ireland Limited, priority 2014, dated 2024)

How the values were obtained:
[1] = test system: preterm infants less than 30 weeks gestational age requiring mechanical ventilation or positive pressure support; assay: Multi-center, double blind, placebo-controlled randomized clinical trial of iNO for prevention of BPD; assay type: in vivo, human
From the text: It has been discovered that certain biomarkers present in premature infants are predictive of the risk of developing BPD and/or the likelihood of a therapeutic response to iNO to prevent BPD. As used herein, the term “therapeutic response to iNO” means that iNO administration increases the rate of survival without bronchopulmonary dysplasia (BPD) at 36 weeks of post menstrual age compared to the rate of survival […] at 36 weeks of post menstrual age in an untreated premature infant population. As used herein, the term “premature infant”, “preterm infant” and the like means infants born at less than 30 weeks gestational age. The biomarkers identified are of three types: a) the concentration of metabolites of NO, such as nitrite and nitrate, in blood or plasma, b) the concentration of NO in exhaled air, and c) the presence or absence of a mutation in the eNOS gene that decreases endogenous NO production, or any combination thereof.
A multi-center, double blind, placebo-controlled randomized clinical trial was conducted to examine the efficacy of iNO in preterm infants less than 30 weeks gestational age and less than 1250 grams who required mechanical ventilation or positive pressure support on days 5 to 14 after birth. […]

[2] = test system: mice with eNOS deficiency; details: inhaled; cited from earlier work
[3] = in vivo; cited from earlier work
[4] = test system: premature infants between 7 and 21 days of age requiring ventilator support; details: decreasing concentrations from 20 ppm, minimum of 24 days; cited from earlier work
[5] = LC/MS assay of total plasma nitrite and nitrate (NOx) in trial subjects; assay type: in vivo, human; details: per subject, nitric oxide treatment arm
Protocol: Because of the challenge to measure free NO in systemic circulation, the PK assessment was done via plasma concentration data of NOx (nitrite and nitrate). In addition, methemoglobin (another metabolite of NO) was used as a secondary variable for PK evaluation. This evaluation was done to understand the relationship between pharmacokinetic behavior of iNO and clinical outcomes. The sampling protocol included pre-treatment time points (less than 2 hours before initiation of NO dosing), as well as a variety of time points during iNO therapy and after discontinuation of iNO therapy.
A liquid chromatographic/mass […] (LC/MS) assay method was developed and qualified for measurement NOx in human plasma. The quantitation of NOx was performed using the ^15N-stable isotope labeled nitrate as an internal standard. Nitrate reductase and NADH was added to the samples for enzymatic reduction of nitrate to nitrite in plasma. Upon completion of the reduction reaction, acetone was added to precipitate plasma proteins. The alkylating reagent, pentafluorobenzyl bromide (PFBBr), was subsequently added to the samples to convert nitrite to a chemically stable pentafluorobenzyl derivative. After completion of derivatization, plasma supernatant was injected into the LC/MS for analysis. Plasma concentrations of total nitrite and nitrate were measured and reported as NOx using this assay method. […]

Structure (SMILES): [N]=O [NITRIC OXIDE, nitric oxide]
- Efficacy of iNO treatment ([1]; subjects having an average NOx concentration of about 20 or less): therapeutically effective
- Efficacy of iNO treatment ([1]; subjects with NOx levels from 62.3 uM to 184 uM): not effective
- Alveolar and vascular growth [2]: stimulated alveolar and vascular growth
- Time before steady-state methemoglobin levels are attained [3]: ≥ 8 h
- Pulmonary outcome [4]: improves the pulmonary outcome
- Short term adverse effects [4]: no apparent short term adverse effects
- Lab Test Result (plasma NOx, total nitrite and nitrate) [5]: <LLOQ
